Experimental data: article PMC7932537, “Quantitative profiling of protease specificity” (PLoS Computational Biology, 2021)

Legend:
MMP-9 = test: Substrate phage display with NGS: relative probability (RP) of P3-P1' tetramer clusters; assay type: biochemical, human
MMP-2 = test: as above; assay type: biochemical, human; conditions: for avg_RP: MMP2 - no binning; for relative probability (RP) of matching tetramer: P3-P1' tetramer matching the MS detected MMP2 cleavage sequence, RP_above_4.5
[1] = RP of the P3-P1' tetramer, MMP9 substrate phage display/NGS, tetramers of physiologic MEROPS substrates common to MMP2 and MMP9
[2] = RP of the P3-P1' tetramer, MMP2 substrate phage display/NGS, tetramers of physiologic MEROPS substrates common to MMP2 and MMP9
[3] = MMP9, RP of the P3-P1' tetramer contained in the hexamer substrate (substrate phage display, NGS)
[4] = RP of the P3-P1' tetramer cluster contained in the hexamer, 200 nM MMP-2, 2 h, 37°C, two rounds of selection
[5] = MMP9, RP of the P3-P1' tetramer matching the MS detected cleavage, RP above 4.7, substrate phage display with NGS
[6] = RP of matching tetramer, common MMP2-9 selectome, RP above KL threshold
[7] = average relative probability (RP) of the P3-P1' tetramer, redundant tetramers have been averaged out
[8] = RP of matching tetramer, common MMP2-9 selectome
[9] = MMP9, RP of matching P3-P1' tetramer, common set of MMP2-9 selectome
[10] = average relative probability of the tetramer, redundant tetramers averaged out
[11] = MMP2, RP of matching P3-P1' tetramer, common set of MMP2-9 selectome, RP above KL threshold
[12] = tetramer projected onto MMP-9 cleavage sites determined by Prudova et al. (2010)
[13] = RP according to MMP9, P3-P1' tetramer of unique physiologic MMP9 substrates from MEROPS
[14] = RP according to MMP2, P3-P1' tetramer of unique physiologic MMP2 substrates from MEROPS

PQGL
relative probability (RP) (acc.to MMP9) (MMP-9; [1]): 47.86 | relative probability (RP) (acc.to MMP2) (MMP-2; [2]): 33.52

PQGLAG
relative probability (RP) (MMP-9; [3]): 47.8621 | relative probability (RP) (MMP-2; [4]): 33.5241

PQLL
relative probability (RP) (MMP-9; [5]): 32.66 | relative probability (RP) (acc.to MMP9) (MMP-9; [6]): 32.66 | avg_RP (MMP-2; [7]): 22.6078 | relative probability (RP) (acc.to MMP2) (MMP-2; [8]): 22.61

PQPEGL
relative probability (RP) (MMP-9; [3]): 39.4116 | relative probability (RP) (MMP-2; [4]): 29.5031

PQPLDL
relative probability (RP) (MMP-9; [3]): 47.1306 | relative probability (RP) (MMP-2; [4]): 30.3595

PQPSEL
relative probability (RP) (MMP-9; [3]): 41.3266 | relative probability (RP) (MMP-2; [4]): 31.5156

PRAV
relative probability (RP) (acc.to MMP9) (MMP-9; [9]): 40.85 | relative probability (RP) (MMP-9; [5]): 40.85 | relative probability (RP) (acc.to MMP9) (MMP-9; [6]): 40.85 | avg_RP (MMP-2; [10]): 28.3444 | relative probability (RP) (acc.to MMP2) (MMP-2; [11]): 28.34 | relative probability (RP) of matching tetramer (MMP-2): 28.34 | relative probability (RP) (acc.to MMP2) (MMP-2; [8]): 28.34

PREL
relative probability (RP) (MMP-9; [5]): 44.67 | relative probability (RP) (acc.to MMP9) (MMP-9; [6]): 44.67 | relative probability (RP) (acc.to MMP2) (MMP-2; [8]): 31.95

PRFL
relative probability (RP) (acc.to MMP9) (MMP-9; [9]): 42.45 | relative probability (RP) (MMP-9; [5]): 42.45 | relative probability (RP) (acc.to MMP9) (MMP-9; [6]): 42.45 | avg_RP (MMP-2; [10]): 28.4443 | relative probability (RP) (acc.to MMP2) (MMP-2; [11]): 28.44 | relative probability (RP) of matching tetramer (MMP-2): 28.44 | relative probability (RP) (acc.to MMP2) (MMP-2; [8]): 28.44

PRGFSH
relative probability (RP) (MMP-9; [3]): 42.5506 | relative probability (RP) (MMP-2; [4]): 32.9171

PRGVKG
relative probability (RP) (MMP-9; [3]): 42.1832 | relative probability (RP) (MMP-2; [4]): 29.4971

PRGY
relative probability (RP) (acc.to MMP9) (MMP-9; [9]): 46.79 | relative probability (RP) (MMP-9; [5]): 46.79 | relative probability (RP) (acc.to MMP9) (MMP-9; [6]): 46.79 | relative probability (RP) (acc.to MMP2) (MMP-2; [11]): 34.02 | relative probability (RP) of matching tetramer (MMP-2): 34.02 | relative probability (RP) (acc.to MMP2) (MMP-2; [8]): 34.02

PRHR
relative probability (RP) (acc.to MMP9) (MMP-9; [1]): 0.35 | relative probability (RP) (acc.to MMP2) (MMP-2; [2]): 0.04

PRHS
relative probability (RP) (acc.to MMP9) (MMP-9; [9]): 18.44 | relative probability (RP) (MMP-9; [5]): 18.44 | relative probability (RP) (acc.to MMP9) (MMP-9; [6]): 18.44 | relative probability (RP) (acc.to MMP2) (MMP-2; [11]): 13.22 | relative probability (RP) of matching tetramer (MMP-2): 13.22 | relative probability (RP) (acc.to MMP2) (MMP-2; [8]): 13.22

PRKQ
MMP9 relative probability (RP) (MMP-9; MMP9 tetramers from unique substrates, unrounded values): 2.4663 | corresponding MMP2 relative probability (RP) (MMP-2; MMP9 tetramers from unique substrates, RP of same tetramer for MMP2): 15.8695

PRML [P3-P1' tetramer cluster]
relative probability (RP) (MMP-9; [12]): 42.29 | avg_RP (MMP-2; [10]): 30.5973

PRPFHH
relative probability (RP) (MMP-9; [3]): 43.6397 | relative probability (RP) (MMP-2; [4]): 32.5323

PRPL [P3-P1' tetramer cluster]
relative probability (RP) (MMP-9; [12]): 46.79 | avg_RP (MMP-2; average relative probability of the P3-P1' tetramer, redundant tetramers have been averaged out): 34.3303

PRPQAA
relative probability (RP) (MMP-9; [3]): 37.3898 | relative probability (RP) (MMP-2; [4]): 27.2115

PRPY
relative probability (RP) (acc.to MMP9) (MMP-9; [9]): 47.69 | relative probability (RP) (MMP-9; [5]): 47.69 | relative probability (RP) (acc.to MMP9) (MMP-9; [6]): 47.69 | relative probability (RP) (acc.to MMP2) (MMP-2; [11]): 33.44 | relative probability (RP) of matching tetramer (MMP-2): 33.44 | relative probability (RP) (acc.to MMP2) (MMP-2; [8]): 33.44

PSGD
relative probability (RP) (acc.to MMP9) (MMP-9; [1]): 0.48 | relative probability (RP) (acc.to MMP2) (MMP-2; [2]): 0.16

PSGK
relative probability (RP) (acc.to MMP9) (MMP-9; [1]): 1.08 | relative probability (RP) (acc.to MMP2) (MMP-2; [2]): 2.08

PSGL
relative probability (RP) (acc.to MMP9) (MMP-9; [1]): 47.39 | relative probability (RP) (acc.to MMP2) (MMP-2; [2]): 35.5

PSKL
relative probability (RP) (acc.to MMP9) (MMP-9; [9]): 38.96 | relative probability (RP) (MMP-9; [5]): 38.96 | relative probability (RP) (acc.to MMP9) (MMP-9; [6]): 38.96 | avg_RP (MMP-2; [7]): 32.2205 | relative probability (RP) (acc.to MMP2) (MMP-2; [11]): 32.22 | relative probability (RP) of matching tetramer (MMP-2): 32.22 | relative probability (RP) (acc.to MMP2) (MMP-2; [8]): 32.22

PSLQ
corresponding MMP9 relative probability (RP) (MMP-9; MMP2 tetramers from unique substrates, RP of same tetramer for MMP9): 1.544 | Relative probability (RP) rank (MMP-9; [13]): 11624 | relative probability (RP) (MMP-9; [13]): 1.54 | relative probability (RP) (acc.to MMP9) (MMP-9; [1]): 1.54 | MMP2 relative probability (RP) (MMP-2; MMP2 tetramers from unique substrates, unrounded values): 7.654 | Relative probability (RP) rank (MMP-2; [14]): 6015 | relative probability (RP) (MMP-2; [14]): 7.65 | relative probability (RP) (acc.to MMP2) (MMP-2; [2]): 7.65

PSNMEG
relative probability (RP) (MMP-9; [3]): 45.3884 | relative probability (RP) (MMP-2; [4]): 32.3748

PSPADI
relative probability (RP) (MMP-9; [3]): 25.0899 | relative probability (RP) (MMP-2; [4]): 23.2522

PSQM
relative probability (RP) (acc.to MMP9) (MMP-9; [1]): 37.02 | relative probability (RP) (acc.to MMP2) (MMP-2; [2]): 27.24

PSSV
relative probability (RP) (acc.to MMP9) (MMP-9; [1]): 25.16 | relative probability (RP) (acc.to MMP2) (MMP-2; [2]): 20.49

PTGK
relative probability (RP) (acc.to MMP9) (MMP-9; [1]): 0 | relative probability (RP) (acc.to MMP2) (MMP-2; [2]): 0.04

PTGL
relative probability (RP) (acc.to MMP9) (MMP-9; [1]): 39.89 | avg_RP (MMP-2; [10]): 33.1098 | relative probability (RP) (acc.to MMP2) (MMP-2; [2]): 33.11

PTGS
relative probability (RP) (acc.to MMP9) (MMP-9; [1]): 0.05 | relative probability (RP) (acc.to MMP2) (MMP-2; [2]): 0.04

PTGV
relative probability (RP) (acc.to MMP9) (MMP-9; [1]): 11.14 | relative probability (RP) (acc.to MMP2) (MMP-2; [2]): 13.32
